In this assay the test system is MX-1 breast xenograft, nude mice, tumor weight T/C. Nature of the assay: NCI In Vivo Anticancer Drug Screen. Data for tumor model Human Mammary Carcinoma MX-1 Xenograft (intrarenal inoculation) in NU/NU Swiss (nude) mice. The conditions noted are these: endpoint: mean tumor weight change, higher = larger tumour. The procedure, abridged:
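Antitumour effect measured in vivo against vehicle controls, expressed as T/C.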
On the technique in general: A xenograft is tissue or cells of one species grown in another, often human tumour cells in immunodeficient mice.

Setting [1] is: dose: 300.0 mg/kg/injection, schedule: Q04DX003 (sc), vehicle: saline with Tween-80.
Where [2] appears, read: dose: 600.0 mg/kg/injection, schedule: Q04DX003 (sc), vehicle: saline with Tween-80.
Where [3] appears, read: dose: 1200.0 mg/kg/injection, schedule: Q04DX003 (sc), vehicle: saline with Tween-80.
Where [4] appears, read: dose: 150.0 mg/kg/injection, schedule: Q04DX003 (sc), vehicle: Klucel (hydroxypropylcellulose) (HPC).
Setting [5] is: dose: 300.0 mg/kg/injection, schedule: Q04DX003 (sc), vehicle: Klucel (hydroxypropylcellulose) (HPC).
Setting [6] is: dose: 150.0 mg/kg/injection, schedule: Q04DX003 (sc), vehicle: saline with Tween-80.
Where [7] appears, read: dose: 300.0 mg/kg/injection, schedule: Q04DX003 (sc), vehicle: saline.
Where [8] appears, read: dose: 1200.0 mg/kg/injection, schedule: Q04DX003 (sc), vehicle: saline.
Setting [9] is: dose: 2400.0 mg/kg/injection, schedule: Q04DX003 (sc), vehicle: saline.

Where “and” joins values, the source holds several entries; their conditions need not be identical. Equal entries are not always repeated. Inconclusive results are not listed.

On to `O=NN(CCCl)C(=O)NC1CCC(=O)NC1=O` (centres undefined), for which the T/C is 100 % of control (dose: 1.56 mg/kg/injection, schedule: Q01DX010 (sc), vehicle: saline with Tween-80); 69 % of control and 72 % of control (dose: 3.13 mg/kg/injection, schedule: Q01DX010 (sc), vehicle: saline with Tween-80); 2 % of control and 15 % of control and 25 % of control (dose: 6.25 mg/kg/injection, schedule: Q01DX010 (sc), vehicle: saline with Tween-80); -87 % of control and -84 % of control (dose: 12.5 mg/kg/injection, schedule: Q01DX010 (sc), vehicle: saline with Tween-80).

Turning to `Nc1ccc2ccc(NS(=O)(=O)N3CCCCC3)cc2c1`, the T/C (dose: 150.0 mg/kg/injection, schedule: Q04DX003 (ip), vehicle: saline with Tween-80) is 110 % of control; the T/C (dose: 300.0 mg/kg/injection, schedule: Q04DX003 (ip), vehicle: saline with Tween-80) was 72 % of control; the T/C (dose: 600.0 mg/kg/injection, schedule: Q04DX003 (ip), vehicle: saline with Tween-80) is 86 % of control; the T/C (dose: 1200.0 mg/kg/injection, schedule: Q04DX003 (ip), vehicle: saline with Tween-80) was 92 % of control.

For `Cc1cc(N(CCOS(C)(=O)=O)CCOS(C)(=O)=O)ccc1C=Nc1ccc(-c2nc(Cc3ccccc3)sc2C)cc1`, the T/C runs as follows: (dose: 50.0 mg/kg/injection, schedule: Q01DX010 (sc), vehicle: Klucel (hydroxypropylcellulose) (HPC)) -79 % of control; (dose: 100.0 mg/kg/injection, schedule: Q01DX010 (sc), vehicle: Klucel (hydroxypropylcellulose) (HPC)) -88 % of control; (dose: 200.0 mg/kg/injection, schedule: Q01DX010 (sc), vehicle: Klucel (hydroxypropylcellulose) (HPC)) -87 % of control.

On to `[N-]=[N+]=CC(=O)CCC(=O)C=[N+]=[N-]`, for which the T/C (dose: 3.0 mg/kg/injection, schedule: Q01DX010 (sc), vehicle: DMSO) is -72 % of control; the T/C (dose: 6.0 mg/kg/injection, schedule: Q01DX010 (sc), vehicle: DMSO) was -42 % of control; the T/C (dose: 12.0 mg/kg/injection, schedule: Q01DX010 (sc), vehicle: DMSO) was 5 % of control; the T/C (dose: 15.0 mg/kg/injection, schedule: Q04DX003 (sc), vehicle: DMSO) is 6 % of control; the T/C (dose: 15.0 mg/kg/injection, schedule: Q04DX003 (sc), vehicle: saline) was 23 % of control; the T/C (dose: 30.0 mg/kg/injection, schedule: Q04DX003 (sc), vehicle: DMSO) is 3 % of control. The T/C is, setting by setting: (dose: 30.0 mg/kg/injection, schedule: Q04DX003 (sc), vehicle: saline) 16 % of control; (dose: 60.0 mg/kg/injection, schedule: Q04DX003 (sc), vehicle: saline) 6 % of control; (dose: 120.0 mg/kg/injection, schedule: Q04DX003 (sc), vehicle: DMSO) -13 % of control; (dose: 120.0 mg/kg/injection, schedule: Q04DX003 (sc), vehicle: saline) 8 % of control.

In the case of `CNC(=O)SCC(N)C(=O)O` (centres undefined), the T/C was 86 % of control (dose: 112.5 mg/kg/injection, schedule: Q04DX003 (ip), vehicle: saline); 67 % of control (dose: 225.0 mg/kg/injection, schedule: Q04DX003 (ip), vehicle: saline); 27 % of control (dose: 450.0 mg/kg/injection, schedule: Q04DX003 (ip), vehicle: saline); 17 % of control (dose: 900.0 mg/kg/injection, schedule: Q04DX003 (ip), vehicle: saline).

Consider `COc1cc(NCCCCCCCNC(C)C)c2nccc(C)c2c1`, for which the T/C (dose: 37.5 mg/kg/injection, schedule: Q04DX003 (sc), vehicle: saline) was 93 % of control; the T/C (dose: 75.0 mg/kg/injection, schedule: Q04DX003 (sc), vehicle: saline) was 76 % of control; the T/C (dose: 150.0 mg/kg/injection, schedule: Q04DX003 (sc), vehicle: saline) was 66 % of control.

In the case of `COc1cc(Cl)ccc1C`, the T/C by setting is: under setting [1], 108 % of control; under setting [2], 88 % of control; under setting [3], 95 % of control; (dose: 2400.0 mg/kg/injection, schedule: Q04DX003 (sc), vehicle: saline with Tween-80) 76 % of control.

For `CC(CN1CC(=O)NC(=O)C1)N1CC(=O)NC(=O)C1` (centres undefined), the T/C by setting is: under setting [4], 92 % of control; under setting [5], 64 % of control.

On to `O=C1NC(O)CCN1C1OC(CO)C(O)C1O` (centres undefined), for which the T/C was 111 % of control (dose: 200.0 mg/kg/injection, schedule: Q01DX010 (sc), vehicle: water); 112 % of control (dose: 400.0 mg/kg/injection, schedule: Q01DX010 (sc), vehicle: water); 79 % of control (dose: 800.0 mg/kg/injection, schedule: Q01DX010 (sc), vehicle: water); 103 % of control (dose: 1600.0 mg/kg/injection, schedule: Q01DX010 (sc), vehicle: water).

With `C[N+](C)(C)c1ncnc2c1ncn2C1CCCO1` (centres undefined), the T/C was 83 % of control (dose: 0.25 mg/kg/injection, schedule: Q01DX010 (sc), vehicle: saline); 112 % of control (dose: 0.5 mg/kg/injection, schedule: Q01DX010 (sc), vehicle: saline); 50 % of control (dose: 1.0 mg/kg/injection, schedule: Q01DX010 (sc), vehicle: saline); 163 % of control (dose: 2.0 mg/kg/injection, schedule: Q01DX010 (sc), vehicle: saline).

On to `C[Si](C)(C)n1nnn(-c2ccccc2)c1=O`, for which the T/C (dose: 75.0 mg/kg/injection, schedule: Q04DX003 (sc), vehicle: saline with Tween-80) is 90 % of control; the T/C under setting [6] was 71 % of control; the T/C under setting [2] is 91 % of control.

Regarding `C[C@H](N)C(=O)N[C@@H]1[C@H]2C(=C(O)C[C@@H](O)[C@@H]2O)C(=O)O[C@@H]1C`, the T/C was 81 % of control under setting [7]; 67 % of control (dose: 600.0 mg/kg/injection, schedule: Q04DX003 (sc), vehicle: saline); 88 % of control under setting [8]; 99 % of control under setting [9].

Turning to `NC(=S)N/N=C/c1ccc(OC(=O)COc2ccccc2)cn1`, the T/C is, setting by setting: under setting [1], 101 % of control; under setting [2], 103 % of control; under setting [3], 76 % of control.

Turning to `COc1ccc2nc3cc(Cl)ccc3c(NCCNCCNCCNc3c4ccc(Cl)cc4nc4ccc(OC)cc34)c2c1`, the T/C by setting is: (dose: 25.0 mg/kg/injection, schedule: Q01DX010 (sc), vehicle: saline with Tween-80) 74 % of control; (dose: 50.0 mg/kg/injection, schedule: Q01DX010 (sc), vehicle: saline with Tween-80) 78 % of control; (dose: 100.0 mg/kg/injection, schedule: Q01DX010 (sc), vehicle: saline with Tween-80) 115 % of control; (dose: 200.0 mg/kg/injection, schedule: Q01DX010 (sc), vehicle: saline with Tween-80) 80 % of control.

Regarding `C=C(c1ccc(OC)c(OC)c1)c1nccc2cc(OC)c(OC)cc12`, the T/C under setting [4] is 91 % of control; the T/C under setting [5] is 71 % of control; the T/C (dose: 600.0 mg/kg/injection, schedule: Q04DX003 (sc), vehicle: Klucel (hydroxypropylcellulose) (HPC)) is 89 % of control; the T/C (dose: 1200.0 mg/kg/injection, schedule: Q04DX003 (sc), vehicle: Klucel (hydroxypropylcellulose) (HPC)) was 54 % of control.

Take `OCCOCC(F)(F)F`: the T/C under setting [7] is 82 % of control, the T/C under setting [8] was 86 % of control and the T/C under setting [9] is 49 % of control.

Regarding `CC(=Nc1ccccc1)C1=C(O)C(Cc2ccccc2)NC1=O` (centres undefined), the T/C reads like this: under setting [6], 92 % of control; under setting [1], 63 % of control; under setting [2], 48 % of control; under setting [3], 44 % of control.

In the case of `C=C1C(=O)O[C@@H]2[C@H](O)[C@@H](C)[C@@H]3C=CC(=O)[C@@]3(C)[C@H](OC(=O)C=C(C)C)[C@H]12`, the T/C was 65 % of control (dose: 9.38 mg/kg/injection, schedule: Q04DX003 (sc), vehicle: saline with Tween-80); 105 % of control (dose: 18.75 mg/kg/injection, schedule: Q04DX003 (sc), vehicle: saline with Tween-80); 84 % of control (dose: 37.5 mg/kg/injection, schedule: Q04DX003 (sc), vehicle: saline with Tween-80).

Consider `Nc1nc(N)c2cc(CNc3ccc(C(=O)NC(CC(=O)O)CC(=O)O)cc3)ccc2n1`, for which the T/C is, setting by setting: (dose: 25.0 mg/kg/injection, schedule: Q04DX003 (sc), vehicle: Klucel (hydroxypropylcellulose) (HPC)) 86 % of control; (dose: 50.0 mg/kg/injection, schedule: Q04DX003 (sc), vehicle: Klucel (hydroxypropylcellulose) (HPC)) 96 % of control; (dose: 100.0 mg/kg/injection, schedule: Q04DX003 (sc), vehicle: Klucel (hydroxypropylcellulose) (HPC)) 75 % of control; (dose: 200.0 mg/kg/injection, schedule: Q04DX003 (sc), vehicle: Klucel (hydroxypropylcellulose) (HPC)) 85 % of control.

The values above are taken from PubChem BioAssay AID296 (DTP/NCI, 2004).
